System: bacteria on a surface, such as a person's skin
Assay: dose of nitric oxide required to kill bacteria on a surface

With [N]=O [nitric oxide] the “dose required to kill bacteria on a surface” value was ≥ 320 ppm.
